Measured values reported in patent publication US20240058450A1, “BCL-XL Inhibitory Compounds Having Low Cell Permeability and Antibody Drug Conjugates Including the Same” (AbbVie Inc., priority 2014, published 2024).
Like-named read-outs stand apart in the source and are kept apart here. Values belong to the compound of their own block, whether it stands above or below them.

Tests used:
Bcl-xL = Bcl-xL (Homo sapiens, UniProt Q07817); assay: Time Resolved-Fluorescence Resonance Energy Transfer (TR-FRET) binding assay, competition with probe F-Bak
Method in brief: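 Compounds compete with F-Bak probe for GST-Bcl-xL detected by Tb-anti-GST antibody. Serial dilutions from 50 μM (2× stock) incubated 2 h at room temperature, then read at 340 nm excitation, 520 and 495 nm emission. Ki by Wang's equation, tested without and with 1% human serum.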

[1] = tested on: permeabilized Molt-4 cells; assay: JC-1 percent depolarization assay in digitonin permeabilized Molt-4 cells; format: cell-based; settings: Homo sapiens
Description: In addition to cytochrome c release, mitochondria undergoing apoptosis frequently lose their transmembrane mitochondrial membrane potential (Bouchier-Hayes et al., 2008, Methods 44(3): 222-228). JC-1 is a cationic carbocyanine dye that accumulates in mitochondria and fluoresces red when mitochondria are healthy and is lost when the mitochondrial membrane is compromised (percentage depolarization; Smiley et al., 1991, Proc. Natl. Acad. Sci. USA, 88: 3671-3675; Reers et al., 1991: Biochemistry, 30: 4480-4486). This loss in signal can be detected in permeabilized cells using a fluorimeter (excitation 545 nm and emission of 590 nm) and is therefore fully quantitative, enhancing both reproducibility and throughput. Specifically, digitonin permeabilized molt-4 cells (75,000/well) were treated with Bcl-xL inhibitors (1000 nM-0.00 nM) for up to 180 minutes at 32° C., with fluorescence determined every 10 minutes. At the maximal signal, the percentage depolarization can be determined for each time concentration of Bcl-xL inhibitors according to the formula:
% Depolarization=1−[(Sample−FCCP)/(DMSO−FCCP)]
DMSO and FCCP (10 μM) are used as negative and positive controls respectively (Ryan & Letai, 2013, Methods 61(2): 156-164). EC50 values were subsequently determined from the resulting concentration-response curves. Good alignment was observed when the ability of Bcl-xL inhibitors to induce cytochrome c release was compared to loss in JC-1 fluorescence in permeabilized Molt-4 cells.

[2] = tested on: Molt-4 human acute lymphoblastic leukemia cells; assay: Molt-4 cell viability assay (CellTiter-Glo, 48 hours, 10% HS); format: cell-based; settings: Homo sapiens, MOLT-4, 48 h, non-permeabilized cells
Method in brief: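 Cells were seeded at 12,500 per well in medium with 10% human serum and exposed to a 3-fold compound dilution series from 10 μM to 0.0005 μM. After 48 h, viable cells were quantified by CellTiter-Glo luminescence. Each concentration was run in duplicate on at least 3 occasions.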

[3] = tested on: permeabilized Bcl-xL dependent Molt-4 cells; assay: Cytochrome C release in selectively (digitonin) permeabilized Molt-4 cells; format: cell-based, human; settings: Homo sapiens, MOLT-4, 4 h, 4 h treatment, read-out: Molt-4 Permeabilized Cyt C Release
Description: The permeabilization of the mitochondrial outer membrane to release proteins from the intermembrane space into the cytosol is a pivotal event in the process of apoptosis. Specifically, the release of cytochrome C triggers the formation of the apoptosome which, in turn, results in caspase activation and other events that will commit the cell to undergo programmed cell death (Goldstein el al., 2005, Cell Death and Differentiation 12:453). The process of mitochondrial outer membrane permeabilization (MOMP) is controlled by the Bcl-2 family members. It is promoted by the multidomain pro-apoptotic proteins Bax and Bak which, upon activation, oligomerize on the outer mitochondrial membrane and form pores to ultimately release cytochrome C. This action is antagonized by the antiapoptotic members, including Bcl-2 and Bcl-xL. Compounds that are capable of inhibiting Bcl-2 or Bcl-xL, for example, in cells that depend upon these proteins for survival, can cause activation of Bax and or Bak, MOMP, release of cytochrome C and the mentioned downstream steps in the apoptotic process. This process of cytochrome C release can be measured in cells via Western blot of both mitochrondrial and cytosolic fractions, and can be used a proxy measurement of apoptosis in cells.
As a means of detecting the ability of a Bcl-xL inhibitor with low cell-permeability to cause release of cytochrome C, the cells can be treated with an agent that causes selective pore formation in the plasma membrane, but not the mitochondrial membrane. Specifically, the cholesterol/phospholipid ratio is much higher in the plasma membrane than the mitochondrial membrane. […] This agent forms insoluble complexes with cholesterol leading to the segregation of cholesterol from its normal phospholipid binding sites. This action, in turn, leads to the formation of holes about 40-50 Å wide in the lipid bilayer. Once the plasma membrane is permeabilized, cytosolic components able to pass over digitonin-formed holes can be washed out, including the cytochrome C that was released from mitochondria to cytosol in the apoptotic cells ((Campos, 2006, Cytometry A 69(6):515-523)).
To determine if Bcl-xL inhibitors were inducing cell death through apoptosis, cytochrome C release was measured in Bcl-xL dependent Molt-4 cells following treatment Specifically, 1×10^6 cells were treated for 4 h (37° C., 5% CO2) with the test compounds in half-log dilutions starting at 3.0 μM and ending at 0.01 μM. Cells were then processed as described in Chen et al., 2011, Mol. Cancer Ther. 10:2340-2350 (the Bcl-2/Bcl-X(L)/Bcl-w inhibitor, navitoclax, enhances the activity of chemotherapeutic agents in vitro and in vivo.).

circulating platelets = assay: Number of circulating platelets in mice after a single intraperitoneal injection (thrombocytopenia)
[4] = in the presence of 1% HS, read-out: Bcl-xL Binding Ki (nM, 1% HS)
[5] = without HS, read-out: Bcl-xL Binding Ki
[6] = single intraperitoneal injection, dose 25 mg/kg

Bcl-xL, sequence (Q07817 whole entry): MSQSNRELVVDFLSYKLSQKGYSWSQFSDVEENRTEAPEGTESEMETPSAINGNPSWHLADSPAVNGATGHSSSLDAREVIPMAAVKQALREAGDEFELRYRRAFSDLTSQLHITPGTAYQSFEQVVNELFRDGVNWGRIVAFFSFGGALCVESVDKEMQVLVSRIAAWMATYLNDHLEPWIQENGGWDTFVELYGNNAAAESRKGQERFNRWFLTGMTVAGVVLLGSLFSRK

Structure (SMILES): Cc1c(-c2ccc(N3CCc4cccc(C(=O)Nc5nc6ccccc6s5)c4C3)nc2C(=O)O)cnn1CC12CC3CC(CC(C3)C1)C2 [Example A-1331852, reference compound]
time of maximal thrombocytopenia following injection (circulating platelets): 6 h
thrombocytopenia (circulating platelets; after injection of the compound): caused thrombocytopenia
Lowest thrombocyte count (circulating platelets; [6]): 9 1/10^3 of the platelet#/mm^3
Time to lowest count (circulating platelets; [6]): 6 h

Structure (SMILES): Cc1c(-c2ccc(N3CCc4cccc(C(=O)Nc5nc6ccccc6s5)c4C3)nc2C(=O)O)cnn1CC12CC3(C)CC(C)(C1)CC(OCCNCC(CO)CO)(C3)C2 [Example 1.79, 6-[8-(1,3-benzothiazol-2-ylcarbamoyl)-3,4-dihydroisoquinolin-2 (1H)-yl]-3-(1-{[3-(2-{[3-hydroxy-2-(hydroxymethyl)propyl]amino}ethoxy)-5,7-dimethyltricyclo[3.3.1.1^3,7]dec-1-yl]methyl}-5-methyl-1H-pyrazol-4-yl)pyridine-2-carboxylic acid]
Ki (Bcl-xL; [4]): 3.1 nM
Ki (Bcl-xL; [5]): < 0.01 nM
EC50 [1]: 0.14 nM
EC50 [2]: 104 nM

Structure (SMILES): Cc1c(-c2ccc(N3CCc4cccc(C(=O)Nc5nc6ccccc6s5)c4C3)nc2C(=O)O)cnn1CC12CC3(C)CC(C)(C1)CC(OCCNC[C@@H](O)[C@@H](O)[C@H](O)CO)(C3)C2 [Example 1.76, 5-{[2-([3-[(4-{6-[8-(1,3-benzothiazol-2-ylcarbamoyl)-3,4-dihydroisoquinolin-2 (1H)-yl]-2-carboxypyridin-3-yl}-5-methyl-1H-pyrazol-1-yl)methyl]-5,7-dimethyltricyclo[3.3.1.1^3,7]dec-1-yl}oxy)ethyl]amino}-5-deoxy-D-arabinitol]
Ki (Bcl-xL; [4]): 1.05 nM
Ki (Bcl-xL; [5]): < 0.01 nM
EC50 [1]: 0.26 nM
EC50 [2]: 495 nM

Structure (SMILES): CNCCOC12CC3(C)CC(C)(CC(Cn4ncc(-c5ccc(-c6ccc7c[n+]([O-])cc(C(=O)Nc8nc9ccccc9s8)c7c6)nc5C(=O)O)c4C)(C3)C1)C2 [Example 1.88, 6-[4-(1,3-benzothiazol-2-ylcarbamoyl)-2-oxidoisoquinolin-6-yl]-3-[1-({3,5-dimethyl-7-[2-(methylamino)ethoxy]tricyclo[3.3.1.1^3,7]dec-1-yl}methyl)-5-methyl-1H-pyrazol-4-yl]pyridine-2-carboxylic acid]
Ki (Bcl-xL; [4]): 3 nM
Ki (Bcl-xL; [5]): 0.127 nM
EC50 [1]: 0.21 nM
EC50 [2]: 96 nM

Structure (SMILES): Cc1c(-c2ccc(-c3cnc4cccc(C(=O)Nc5nc6ccccc6s5)c4c3)nc2C(=O)O)cnn1CC12CC3(C)CC(C)(C1)CC(OCCNCCS(=O)(=O)O)(C3)C2 [Example 1.69, 6-[5-(1,3-benzothiazol-2-ylcarbamoyl)quinolin-3-yl]-3-{1-[(3,5-dimethyl-7-{2-[(2-sulfoethyl)amino]ethoxy}tricyclo[3.3.1.1^3,7]dec-1-yl)methyl]-5-methyl-1H-pyrazol-4-yl}pyridine-2-carboxylic acid]
Ki (Bcl-xL; [4]): 4.9 nM
Ki (Bcl-xL; [5]): < 0.01 nM
EC50 [1]: 0.14 nM

Further compounds by falling Ki (Bcl-xL; [4]), results first:

Ki (Bcl-xL; [4]): 0.81 nM
Ki (Bcl-xL; [5]): 0.008 nM
EC50 [1]: 0.56 nM
EC50 [2]: 473 nM
EC50 [3]: < 0.5 nM
Structure (SMILES): CNCCOC12CC3(C)CC(C)(CC(Cn4ncc(-c5ccc(N6CCc7c(OCC(=O)O)ccc(C(=O)Nc8nc9ccccc9s8)c7C6)nc5C(=O)O)c4C)(C3)C1)C2 [Example 1.41, 6-[8-(1,3-benzothiazol-2-ylcarbamoyl)-5-(carboxymethoxy)-3,4-dihydroisoquinolin-2 (1H)-yl]-3-[1-({3,5-dimethyl-7-[2-(methylamino)ethoxy]tricyclo[3.3.1.1^3,7]dec-1-yl}methyl)-5-methyl-1H-pyrazol-4-yl]pyridine-2-carboxylic acid]

Ki (Bcl-xL; [4]): 0.55 nM
Ki (Bcl-xL; [5]): < 0.01 nM
EC50 [1]: 0.06 nM
EC50 [2]: 378 nM
Structure (SMILES): Cc1c(-c2ccc(-c3ccc4cccc(C(=O)Nc5nc6ccccc6s5)c4c3)nc2C(=O)O)cnn1CC12CC3(C)CC(C)(C1)CC(OCCNCCCO[C@@H]1O[C@H](C(=O)O)[C@@H](O)[C@H](O)[C@H]1O)(C3)C2 [Example 1.87, 3-{[2-({3-[(4-{6-[8-(1,3-benzothiazol-2-ylcarbamoyl)naphthalen-2-yl]-2-carboxypyridin-3-yl)-5-methyl-1H-pyrazol-1-yl)methyl]-5,7-dimethyltricyclo[3.3.1.1^3,7]dec-1-yl}oxy)ethyl]amino}propyl beta-D-glucopyranosiduronic acid]

Ki (Bcl-xL; [4]): 0.4 nM
Ki (Bcl-xL; [5]): 0.016 nM
EC50 [1]: 0.07 nM
EC50 [2]: 78 nM
Structure (SMILES): Cc1c(-c2ccc(N3CCc4cccc(C(=O)Nc5nc6ccccc6s5)c4C3)nc2C(=O)O)cnn1CC12CC3(C)CC(C)(C1)CC(OCCNCC[C@H](O)CO)(C3)C2 [Example 1.85]

Ki (Bcl-xL; [4]): 0.166 nM
Ki (Bcl-xL; [5]): < 0.01 nM
EC50 [1]: 0.099 nM
EC50 [2]: 837 nM
Structure (SMILES): Cc1c(-c2ccc(N3CCc4cccc(C(=O)Nc5nc6ccccc6s5)c4C3)nc2C(=O)O)cnn1CC12CC3(C)CC(C)(C1)CC(OCCNCC[C@@H](O)[C@H](O)[C@H](O)CO)(C3)C2 [Example 1.77, 1-{[2-({3-[(4-{6-[8-(1,3-benzothiazol-2-ylcarbamoyl)-3,4-dihydroisoquinolin-2 (1H)-yl]-2-carboxypyridin-3-yl}-5-methyl-1H-pyrazol-1-yl)methyl]-5,7-dimethyltricyclo[3.3.1.1^3,7]dec-1-yl}oxy)ethyl]amino}-1,2-dideoxy-D-arabino-hexitol]

Ki (Bcl-xL; [4]): 0.134 nM
Ki (Bcl-xL; [5]): < 0.001 nM
EC50 [1]: 0.13 nM
EC50 [2]: 19 nM
Structure (SMILES): Cc1c(-c2ccc(N3CCc4cccc(C(=O)Nc5nc6ccccc6s5)c4C3)nc2C(=O)O)cnn1CC12CC3(C)CC(C)(C1)CC(OCCNC(CO)CO)(C3)C2 [Example 1.45, 6-[8-(1,3-benzothiazol-2-ylcarbamoyl)-3,4-dihydroisoquinolin-2 (1H)-yl]-3-{1-[(3-{2-[(1,3-dihydroxypropan-2-yl)amino]ethoxy}-5,7-dimethyltricyclo[3.3.1.1^3,7]dec-1-yl)methyl]-5-methyl-1H-pyrazol-4-yl}pyridine-2-carboxylic acid]

Ki (Bcl-xL; [4]): 0.1 nM
Ki (Bcl-xL; [5]): 0.006 nM
EC50 [1]: 0.24 nM
EC50 [2]: 2720 nM
EC50 [3]: < 0.5 nM
Structure (SMILES): Cc1c(-c2ccc(N3CCc4cccc(C(=O)Nc5nc6ncccc6s5)c4C3)nc2C(=O)O)cnn1CC12CC3(C)CC(C)(C1)CC(OCCNCCS(=O)(=O)O)(C3)C2 [Example 1.23, 3-{1-[(3,5-dimethyl-7-{2-[(2-sulfoethyl)amino]ethoxy}tricyclo[3.3.1.1^3,7]dec-1-yl)methyl]-5-methyl-1H-pyrazol-4-yl}-6-[8-([1,3]thiazolo[4,5-b]pyridin-2-ylcarbamoyl)-3,4-dihydroisoquinolin-2 (1H)-yl]pyridine-2-carboxylic acid]
